The results in this text go back to article PMC8202924, “Emodepside targets SLO-1 channels of Onchocerca ochengi and induces broad anthelmintic effects in a bovine model of onchocerciasis” (PLoS Pathogens, 2021).

Values joined by “and” are separate entries in the source; they are usually repeats but may differ in a detail not shown here. Identical values can stand only once. Like-named read-outs stand apart in the source and are kept apart here.

Data set [1] is described as follows: Plasma PK of emodepside in the main trial, LC-MS/MS. The data set is classed as in vivo, zebu (Ngaoundéré Gudali) cattle (B. t. indicus). The note with it: for Model tmax in plasma: two-compartment model; for Tmax: bovine, iv, read-out: Time of observed Cmax in plasma (converted). The procedure:
Bovine samples (EDTA-plasma, skin snips and nodules) were stored at –80°C in Cameroon and shipped according to international transportation guidelines on dry ice to Bayer, Germany. Due to suspected contamination with other pathogens, samples required decontamination. Based on modified WHO guidelines for viral inactivation and reports of virus stability in fluids and solid media issued by the United States Army, decontamination of samples was performed. Samples were thawed slowly in a microbiological safety cabinet and the plasma samples were vortexed gently. Skin snips and nodules were homogenized in a Qiagen TissueLyser II (Qiagen NV, Hilden, the Netherlands) with stainless steel beads. Homogenates were weighed and mixed with 4.5 volumes of a 0.5% collagenase solution (collagenase from Clostridium histolyticum [>125 IU/mg] Merck KGaA, Darmstadt, Germany), then incubated at 37°C with orbital mixing at 140 rpm for 48 h.
Plasma samples, skin and nodule homogenates were precipitated in a 1:10 ratio with acetonitrile using a vortex mixer at 150 rpm for 10 min, then centrifuged for 5 min at 14,000 rpm. The supernatants were pipetted into gas-tight vials and incubated at 80°C for 21 min to achieve a core temperature of 80°C for 10 min, then cooled to 4°C in a water-ice bath. Finally, samples were filtered using a cellulose sterile filter (S&S Spartan 13/30) into standard HPLC vials for liquid chromatography–mass spectrometry analysis. For liquid chromatography on a C18 column, a water/methanol gradient (containing 10 mmol ammonium acetate and 0.1 mL/L formic acid) was used. Quantification of emodepside was performed by tandem mass spectrometry on an API 5500 instrument (AB Sciex, Darmstadt, Germany) using the transition of m/z = 1,120 ([M + H]^+) to its product ion m/z = 343. […]
For the PK mean model, the PK of emodepside was modelled using a closed-form, two-compartment IV model according to Eq 1. csdt=dose*c0*exp−ke*t*1+delta*exp+ke*f*t (1) with ke, f and delta being parameters describing the distribution and elimination phase, and c0 being a proportionality factor for the dose.
The multiple IV dose was modelled as an additive single-dose, two-compartment model according to Eq 2. cmdt=∑i=17t−i*tΔ>0?csdt−i*tΔ:0 (2) with i as index of doses (1 to 7), and tΔ the difference in time between consecutive doses (here 24 h).
Parameters describing distribution and elimination of emodepside were fitted to the observed data of all dose steps and animals together using the optim fit function of R and the ‘L-BFGS-B’ method […] box constraints. From the observed data, the maximal observed concentration and the corresponding timepoint were extracted. The terminal half-life was calculated from the last three datapoints. The corresponding mean values were derived from the compartmental model parameters.

Data set [2] in a line: Dose identification (tolerability, blood glucose) after single IV infusion in Holstein cattle. It counts as in vivo, Holstein cattle (Bos taurus). From the text: To ensure that doses of emodepside would be well tolerated in cattle in Cameroon, and that any adverse effects would be manageable in the field, dose identification was first performed in two female Holstein cattle (Bos taurus) 13–15 months old in Germany. Animals were from Rinder Union West, 48147 Münster, Germany, and were kept in a pen in an outdoor climate housing system of approximately 8 × 10 m in size in Hanscheider Hof, 51399 Burscheid, Germany. Pens were equipped with a self-locking feeding fence, deep-straw bedding and an automatic cup drinker system. Animals were offered fresh corn- and grass-silage once daily ad libitum, drinking water from the onsite well and mineral licks ad libitum. Straw bedding was refreshed at least weekly. Tolerability and pharmacokinetics (PK) of emodepside were assessed after a single intravenous (IV) injection: emodepside (4.0% m/m in solketal) was administered by constant infusion via the external jugular vein using disposable sterile IV catheters (Vasofix Braunüle 14G, 2,2 × 50 mm, Braun, Germany), sterile syringes (Perfusor-Syringe 50 mL, Braun, Germany), tubing systems (Braun Original-Perfusor-tubing, 150 cm, Luer Lock), and a perfusion system (Braun Perfusor Space). Animal 1 received emodepside 2.17 mg/kg; animal 2 received emodepside 1 mg/kg. Safety and tolerability were assessed during and after each administration. […] To determine the PK profile of emodepside and any possible influence of the drug on blood glucose concentrations, blood samples were drawn before dosing and at 4 min, 8 min, 15 min, 30 min, 1 h, 2 h, 3 h, 4 h, 6 h, 8 h, 24 h, 32 h, 48 h, 72 h, 96 h and 168 h after administration. Samples for glucose determination were taken before dosing and at 15 min, 30 min, 1 h, 2 h, 3 h, 4 h, 6 h and 8 h after dosing, centrifuged at 10°C (3,220 × g) for 10 min and stored under cool conditions (<8°C).

The test system of data set [3] is Onchocerca ochengi microfilariae. As to the kind of experiment: Dermal microfilarial load (area under the density-time curve). The note with it: MRSM, 4 mg/kg every other day for 3 days; vs placebo. It counts as in vivo. From the text: Here, the null hypothesis, H0, is that the parameter m is not different to 0. If H0 can be rejected, a concentration-dependent effect of emodepside can be assumed. The alpha level selected for statistical significance was 5%. We considered three PD endpoints, a) uterine contents (with oocytes, developing embryonic stages, normal intrauterine Mf and degenerate intrauterine Mf considered separately), b) skin Mf load, and c) male and female motility (separately). Mf load is defined as the area under the curve of observed counts over time according to Eq 4: Mfload=∑i=2nMfdensityi+Mfdensityi−1/2*ti−ti−1 (4) per individual treated animal. To increase the robustness of the analysis, only animals presenting a skin Mf load of ≥100/100 mg skin at day -1 were included.
The same principle was applied to the analysis of the uterine contents. In order to test a dose-dependent effect, and an effect over placebo, the log load of uterine contents or Mf was used as the PD endpoint E in Eq 3, and exposure C was the sum of doses. Over all doses and individual animals, an effect size (m) and corresponding statistics were calculated using R’s lm function.

Where [4] appears, read: EMO1L, 0.15 mg/kg IV single dose, individual animals in order B0696, B0698, B0700, B0722, B0730, B0731, B0762.
The mark [5] stands for this setting: 1 mg/kg IV perfusion, one animal.

In the case of `CC(C)C[C@H]1C(=O)O[C@H](Cc2ccc(N3CCOCC3)cc2)C(=O)N(C)[C@@H](CC(C)C)C(=O)O[C@H](C)C(=O)N(C)[C@@H](CC(C)C)C(=O)O[C@H](Cc2ccc(N3CCOCC3)cc2)C(=O)N(C)[C@@H](CC(C)C)C(=O)O[C@H](C)C(=O)N1C` [emodepside], the “Time of observed Cmax in plasma” value is 5 min in data set [1] (EMO1H, 0.75 mg/kg IV single dose, animals in order B0054, B0405, B0439, B0726, B0728); 5 min (6×) and 30 min in data set [1] (setting [4]). For the same molecule, the tlast in plasma in data set [1] (EMO1H, 0.75 mg/kg IV single dose, individual animals in order B0054, B0405, B0439, B0721, B0726, B0727, B0728) is 168 h (2×) and 504 h (4×) and 336 h; in data set [1] (setting [4]), 168 h (3×) and 336 h (2×) and 504 h; in data set [1] (EMO7H, 0.75 mg/kg IV daily for 7 days, individual animals in order B0404, B0434, B0694, B0695, B0734, B0750, B0765), 504 h; in data set [1] (EMO7L, 0.15 mg/kg IV daily for 7 days, individual animals in order B0228, B0407, B0549, B0725, B0733, B0735, B0761) it was 336 h and 504 h (6×). Besides, the “Model tmax in plasma” value worked out at 0.083 h in data set [1] (EMO1H, 0.75 mg/kg IV single dose); 0.083 h in data set [1] (EMO1L, 0.15 mg/kg IV single dose); 144 h in data set [1] (EMO7H, 0.75 mg/kg IV daily for 7 days); 144 h in data set [1] (EMO7L, 0.15 mg/kg IV daily for 7 days). The Tmax in data set [1] (Ngaoundéré Gudali zebu, plasma, 0.15 mg/kg, EMO7L, 0.15 mg/kg IV daily for 7 days, animals in order B0228, B0407, B0735, B0761) is 1440 min; in data set [1] (Ngaoundéré Gudali zebu, plasma, 0.15 mg/kg, EMO7L, 0.15 mg/kg IV daily for 7 days, animals in order B0549, B0725, B0733), 5 min; in data set [1] (Ngaoundéré Gudali, plasma, 0.75 mg/kg, EMO7H, 0.75 mg/kg IV daily for 7 days, animals in order B0434, B0695, B0734), 5 min. The Terminal half-life entry in data set [1] (plasma, derived from observed data and aggregated through the PK model, all dose groups) was “approximately 106 h”. Further, the “Heart rate by the end of the perfusion” value in data set [2] (setting [5]) is listed as “approximately 108 bpm”. The “Heart rate, peak during the application” value in data set [2] (setting [5]) came to 140 bpm. Also, in data set [2] (1 mg/kg IV, 3–8 h post-application, xylazine at 6–8 h may have contributed), the “Blood glucose, peak” value is ~ 12 mmol/L. Further, in data set [2] (1 mg/kg IV, after 24 h (normal)), the Blood glucose was determined as 4.33 mmol/L. Further, the Adverse effects entry in data set [2] (1 mg/kg IV, for approximately 1 h after application, then full recovery) is “Salivation and slight muscle tremors”; in data set [2] (2.17 mg/kg IV perfusion, one animal, treatment discontinued), “severe generalised muscle tremor, salivation and tachycardia”.
Take `NCCS[As](SCCN)c1ccc(Nc2nc(N)nc(N)n2)cc1` [melarsomine]: the “Median reduction in Mf load” value in data set [3] was found to be 96%.
